Experimental data: US20250009743A1, “METHODS OF TREATING CANCERS USING STING AGONISTS” (Dana-Farber Cancer Institute, Inc., priority 2021, published 2025)

Key:
PBM-R tumor cells = assay: γ-H2AX flow cytometry in PBM-R cells; assay type: cell-based, mouse; settings: 1 μM olaparib 24 hours
Experimental: Analysis of p-STAT3 and γ-H2AX (p-HA2X-Ser139) was performed according to a two-step protocol for intracellular phosphorylated signaling proteins (Thermo Fisher). Briefly, cells were incubated with LIVE/DEAD Fixable Aqua Dead Cell Stain for 30 min. After washing, cells were suspended in 100 μl PBS and then fixed by adding an equal volume of IC Fixation Buffer (CAT #00-822-49, Thermo Fisher) directly to cells and incubated at room temperature for 20 min followed by fixing with ice-cold 90% methanol in PBS for 30 min. The fixed cells were blocked and stained with p-STAT3 or γ-H2AX antibodies for flow cytometry analysis as described above.

[1] = system: myeloid cells (CD45^+CD11b^+) in ascites of PBM-R tumor-bearing mice; assay: Myeloid cells in ascites of PBM-R tumor-bearing mice (transcriptome, flow cytometry); assay type: in vivo, mouse; settings: 24 hours treatment
Experimental: Tumors were chopped and digested in collagenase buffer as described previously (Ding et al., 2018 Cell Rep 25, 2972-2980.e2975). Single cell suspensions of tumor and ascites were obtained by filtering through 70 um strainers and treated with 1× eBioscience RBC lysis buffer (Thermo Fisher) before staining. Single cells suspensions were incubated with LIVE/DEAD Fixable Aqua Dead Cell Stain (Life Technologies, Cat #L34965) for 30 min and then blocked with anti-CD16/32 (Biolegend, clone 93) for 20 min on ice. Samples were then incubated with appropriate antibodies for 30 min on ice. Foxp3 staining buffer set (eBioscience, Cat #00-5523-00) was applied for intracellular markers staining. For the intracellular cytokine analysis, cells were stimulated with Leukocyte Activation Cocktail (BD Biosciences, Cat #550583) at 37° C. for 4-6 hours prior to FACS staining. The following antibodies were used in this study: antibodies were purchased from BioLegend unless otherwise indicated: CD45 (clone 30-F11), CD3ε (clone 145-2C11), CD4 (clone RM4-5), CD8 (clone 53-6.7), CD44 (clone IM7), CD62L (MEL-14), CD25 (PC61), IFNγ (clone XMG1.2), TNFα (clone MP6-XT22), CD11b (clone M1/70), CD11c […], F4/80 (clone BM8), Ly-6C (clone HK1.4), Ly-6G (clone 1A8), MHC-II (clone M5/114.15.2), CD80 (clone 16-10A1), CD86 (clone GL-1), MHC-I (clone KH114), FoxP3 (clone FJK-16 s; eBioscience), Phospho-IRF-3 (Ser396) (clone D601M, Cell signaling technology) and Phospho-TBK1/NAK (Ser172) (clone D52C2, Cell signaling technology). The following human antibodies were used in this study: cell surface markers includes CD45 (clone H130), CD11b (clone M1/70), CD11c (clone Bu15), CD80 (clone 2D10), CD86 (clone IT2.2), CD14 (clone 63D3), CD15 […], HLA-DR (clone L243) and HLA-A,B,C (clone W6/32); intracellular markers include CD163 (clone GHI/61), CD68 (clone Y1/82A) and CD206 (clone 15-2). Flow cytometry was performed on an LSRII (BD Biosciences) or Fortessa HTS (BD Biosciences) at DFCI Flow Cytometry Core, and all the data were analyzed using FlowJo software.
Transcriptome analysis of myeloid cells: about 1 x10^6 PBM-R tumor cells were intraperitoneally injected to FVB/NJ mice. About 2-3 weeks after injection, mice were grouped and treated with control, olaparib, MSA-2 and […] for 24 hrs. After treatment, myeloid cells (CD45^+CD11b^+) were isolated from the ascites of each mouse (n=3 per group). Total RNAs was isolated and sequenced on the Ion Torrent platform (Thermo Fisher) that described above using the Ion AmpliSeq Transcriptome Mouse Gene Expression Panel. Gene ontology (GO) analysis of DEGs was performed using topGO package in R. GSEA analysis was performed as described above. Heat maps illustrating changes in gene expression were generated using the heatmap.3 package in R.

[2] = system: ID8-Brca1^−/− tumor cells in WT and STING^−/− mice; assay: Macrophages and myeloid DCs in WT and STING^−/− mice injected with ID8-Brca1^−/− tumor cells; assay type: in vivo, mouse; settings: 24 h treatment; FIG. 21K, FIG. 22D
Experimental: Tumors were chopped and digested in collagenase buffer as described previously (Ding et al., 2018 Cell Rep 25, 2972-2980.e2975). Single cell suspensions of tumor and ascites were obtained by filtering through 70 um strainers and treated with 1× eBioscience RBC lysis buffer (Thermo Fisher) before staining. Single cells suspensions were incubated with LIVE/DEAD Fixable Aqua Dead Cell Stain (Life Technologies, Cat #L34965) for 30 min and then blocked with anti-CD16/32 (Biolegend, clone 93) for 20 min on ice. Samples were then incubated with appropriate antibodies for 30 min on ice. Foxp3 staining buffer set (eBioscience, Cat #00-5523-00) was applied for intracellular markers staining. For the intracellular cytokine analysis, cells were stimulated with Leukocyte Activation Cocktail (BD Biosciences, Cat #550583) at 37° C. for 4-6 hours prior to FACS staining. […] Flow cytometry was performed on an LSRII (BD Biosciences) or Fortessa HTS (BD Biosciences) at DFCI Flow Cytometry Core, and all the data were analyzed using FlowJo software.

BP-sgControl tumors = assay: BP-sgControl tumor growth and survival in FVB mice; assay type: in vivo, mouse; settings: DMXAA 10 mg/kg i.p. weekly; olaparib 50 mg/kg i.p. q.d.; FIG. 11G
Experimental: (§1) Primary mammary tumor cells for orthotopic injection were resuspended in serum-free DMEM containing 40% matrigel (Corning). 5×10^5 tumor cells in a total volume of 100 μL were injected orthotopically into the thoracic mammary fat pads of 8-week-old female FVB/NJ mice (The Jackson Laboratory). Tumor growth was examined by measuring the greatest longitudinal diameter (length) and the greatest transverse diameter (width) with digital calipers, and tumor volume was calculated by use of the modified ellipsoid formula (0.52×length×width2). Tumors were measured 2-3 times a week. All tumor measurements within single cohorts were performed by the same researcher. Tumor-bearing mice were randomized prior to start of treatment. Drug treatments were started when mean tumor volumes approximated 50-100 mm3. Mice were euthanized by CO2 inhalation when tumor volumes met humane endpoints described in the IACUC (20 mm diameter) protocols or upon severe health deterioration.
(§2) Olaparib (MedChem, #HY-10162) was prepared by diluting 100 mg/l mL stocks in DMSO with 10% (2-Hydroxypropyl)-β-cyclodextrin (HPCD, MedChem, #101103) in PBS and administered immediately after drug preparation by intraperitoneal (i.p.) injection at a dose of 50 mg/kg body weight daily. DMXAA (Sigma, #D5817) was reconstituted at 10 mg/mL in 7.5% NaHCO3(Gibco). […]

BP-sgSTING tumors = assay: BP-sgSTING tumor growth and survival in FVB mice; assay type: in vivo, mouse; settings: olaparib 50 mg/kg i.p. q.d.
Experimental: as §1, §2

O=C(c1cc(Cc2n[nH]c(=O)c3ccccc23)ccc1F)N1CCN(C(=O)C2CC2)CC1 [olaparib]
DNA damage (γ-H2AX) (PBM-R tumor cells; PBM-R3 cells): a little DNA damage signaling | DNA damage (γ-H2AX) (PBM-R tumor cells; PBM-R tumor cells): significantly increased DNA damage

COc1cc2cc(C(=O)CCC(=O)O)sc2cc1OC [MSA-2]
cGAS-STING pathway gene signature in myeloid cells ([1]; vs control mice): significantly higher enrichment scores | expression of M1-like/anti-tumorigenic genes ([1]; FIG. 21D): strongly up-regulated | expression of genes associated with antigen processing and presentation ([1]; FIG. 21D): strongly stimulated | expression of genes associated with pro-tumorigenic M2 polarization ([1]; FIG. 21D): inhibited | population of TAMs in ascites ([1]; FIG. 21F): decreased | population of CD11b^+CD11c^+ myeloid DCs in ascites ([1]; FIG. 21G): increased | myeloid DC activation and TAM repolarization in WT mice [2]: successfully activated myeloid DCs and repolarized M2-like TAM to M1-like status

Cc1ccc2c(=O)c3cccc(CC(=O)O)c3oc2c1C [DMXAA, 5,6-dimethyl-xanthenone-4-acetic acid]
BP-sgControl tumor growth (BP-sgControl tumors): no significant impact | BP-sgSTING tumor growth (BP-sgSTING tumors; DMXAA 10 mg/kg i.p. weekly, FIG. 11H): no significant impact | BP-sgSTING tumor growth (BP-sgSTING tumors; DMXAA 10 mg/kg intratumoral one dose per week, FIG. 12B): completely refractory
